{"source": "paper PMC8022858", "about": "“Discovery of bone morphogenetic protein 7-derived peptide sequences that attenuate the human osteoarthritic chondrocyte phenotype” (Molecular Therapy. Methods & Clinical Development, 2021)", "test_system": "HACs in OA synovial fluid (SF)", "test": "Peptide bioactivity on HACs cultured in OA synovial fluid (gene expression, sGAG, ALP activity, PGE2)", "assay_type": "cell-based, human", "settings": "100 nM peptide, 20% (v/v) OA SF; for sGAG content of HAC cultures: 24 h (Figure 3D); for retainment of bioactivity on ALP activity in OA SF environment: 24 h (Figure 3E); for retainment of bioactivity on PGE2 secretion in OA SF environment: 24 h (Figure 3F); for expression of NKX3-2 / OA SF-induced expression of RUNX2, COL10A1, ALPL, MMP13, ADAMTS5, COX-2, and IL6 / OA SF-induced decline of SOX9 and COL2A1 expression: 24 h; for expression of NKX3-2: n = 3 donors (Figure 3A); for OA SF-induced expression of RUNX2, COL10A1, ALPL, MMP13, ADAMTS5, COX-2, and IL6: n = 3 donors (Figures 3B, 3C); for OA SF-induced decline of SOX9 and COL2A1 expression: n = 3 donors in triplicate (Figure 3A)", "from_the_text": "To further corroborate the potential OA-protective properties of peptides p[63−82] and p[113−132], we mimicked the OA environment by exposing non-OA-HACs to OA SF. Culturing non-OA-HACs in the presence of OA SF reduced their SOX9, COL2A1, and NKX3-2 expression (Figure 3A), whereas expression of RUNX2, COL10A1, ALPL, MMP13, ADAMTS5, COX-2, and IL6 was induced by OA SF (Figures 3B and 3C). This was accompanied by increased ALP activity and PGE2 secretion (Figures 3E and 3F). […] The OA SF-induced expression of RUNX2, COL10A1, ALPL, MMP13, ADAMTS5, COX-2, and IL6 was, without exception, mitigated by peptides p[63−82] and p[113−132] (Figures 3B and 3C). sGAG content of HAC cultures was unaltered by the peptides (Figure 3D). Retainment of peptide p[63−82] and p[113−132] bioactivity on HACs in an OA SF environment was also confirmed for ALP activity (Figure 3E) and PGE2 secretion (Figure 3F).\nFigure 3 Bioactivity of peptides p[63−82] and p[113−132] on OA articular chondrocytes in OA synovial fluid (SF) […] (n = 3 individual donors, tested in triplicate) were exposed to 100 nM peptide p[63−82] or p[113−132] in the presence of OA SF (20% [v/v]; equal ratio mix from five individual donors). Control is 20% (v/v) 0.9% NaCl. Cells were cultured in these conditions for 24 h and analyzed for mRNA expression of indicated genes (normalized for 28S rRNA expression and relative to control condition). (A) Expression of SOX9, COL2A1, and NKX3-2 mRNAs. (B) Expression of RUNX2, COL10A1, and ALPL mRNAs. (C) Expression of MMP13, ADAMTS5, COX-2, and IL-6 mRNAs. (D) GAG content (normalized to total protein content) was determined in the same conditions. (E) ALP enzyme activity in cell lysates of the same conditions was determined and normalized for total protein content. (F) PGE2 levels in culture supernatants of the same conditions. Error bars represent mean ± SEM, and statistical significance for peptide conditions or control versus SF condition as determined by unpaired two-tailed Student’s t test is represented as ∗p < 0.05, ∗∗p < 0.01, and ∗∗∗p < 0.001.\nCartilage was obtained from total knee arthroplasty of end-stage (K&L grades 3−4) OA patients and from resected knee cartilage from cartilage repair procedures of non-OA patients. Medical ethical permission was received from the Maastricht University Medical Center Medical Ethical Committee (approval number 2017-0183). Chondrocytes were isolated using collagenase as described earlier.[27] The HACs were cultured until passage two in DMEM/F12 (Life Technologies), 10% fetal calf serum (FCS; Sigma-Aldrich), 1% antibiotic/antimycotic (Life Technologies), and 1% non-essential amino acids (Life Technologies) in a humidified atmosphere at 37°C, 5% CO2. SW1353 cells (ATCC HTB-94, short tandem repeat [STR] profiled)[54] were cultured in identical conditions. For experiments, cells were plated in technical triplicates at 30,000 cells/cm^2. BMP7 (R&D Systems) was used at 1 nM. OA SF was perioperatively collected from OA patients (same medical ethics statement [2017-0183] as for cartilage above) and was centrifuged to remove cells/debris. For experiments, an SF pool from five OA patients was prepared (equal volume ratios) and applied on cells in a 20% (v/v) concentration. For RNAi, scrambled and NKX3-2 siRNA duplexes (Table S1) were custom made (Eurogentec). Transfection (100 nM siRNA) in HACs was performed using HiPerFect (QIAGEN) according to the manufacturer’s protocol. The BRE reporter,[32] CAGA12 reporter,[33] or cytomegalovirus (CMV)-Gaussia as transfection control[55] were transfected (100 ng/μL) in SW1353 cells using FuGENE (Promega) according to the manufacturer’s protocol. […]", "data": [{"substance": "H-AAYYSEGESAFPLNSYMNAT-OH [p[63−82]]", "values": [{"measurement": "sGAG content of HAC cultures", "value": "unaltered"}, {"measurement": "retainment of bioactivity on ALP activity in OA SF environment", "value": "confirmed"}, {"measurement": "retainment of bioactivity on PGE2 secretion in OA SF environment", "value": "confirmed"}, {"measurement": "expression of NKX3-2", "value": "induced by the peptides to levels higher than in the control condition"}, {"measurement": "OA SF-induced expression of RUNX2, COL10A1, ALPL, MMP13, ADAMTS5, COX-2, and IL6", "value": "mitigated"}, {"measurement": "OA SF-induced decline of SOX9 and COL2A1 expression", "value": "counteracted to some extent"}]}, {"substance": "H-SVLYFDDSSNVILKKYRNMV-OH [p[113−132]]", "values": [{"measurement": "sGAG content of HAC cultures", "value": "unaltered"}, {"measurement": "retainment of bioactivity on ALP activity in OA SF environment", "value": "confirmed"}, {"measurement": "retainment of bioactivity on PGE2 secretion in OA SF environment", "value": "confirmed"}, {"measurement": "expression of NKX3-2", "value": "induced by the peptides to levels higher than in the control condition"}, {"measurement": "OA SF-induced expression of RUNX2, COL10A1, ALPL, MMP13, ADAMTS5, COX-2, and IL6", "value": "mitigated"}, {"measurement": "OA SF-induced decline of SOX9 and COL2A1 expression", "value": "counteracted to some extent"}]}]}
